Data taken from patent USRE48461E1, “Modulation of androgen receptor expression” (Ionis Pharmaceuticals, Inc., priority 2012, dated 2021).
Oligonucleotides are written 5' to 3', each unit as a sugar letter and its base; * is a phosphorothioate linkage, no mark a phosphodiester; rarer units and linkages stand in square brackets, end groups in braces. Plain capitals give the bases only. k = constrained ethyl (cEt); [5mC] = 5-methylcytosine; d = 2'-deoxy (DNA)

Columns and labels:
AR mRNA [1] = assay: Dose-dependent antisense inhibition of human AR in HuVEC cells (electroporation, qRT-PCR RTS3559, IC50); assay type: cell-based; conditions: HuVEC, electroporation, approximately 16 hours
Protocol: (§1) After a treatment period of approximately 16 hours, RNA was isolated from the cells and AR mRNA levels were measured by quantitative real-time PCR. Human AR primer probe set RTS3559 was used to measure mRNA levels. AR mRNA levels were adjusted according to total RNA content, as measured by RIBOGREEN®. […] The antisense oligonucleotides were tested in a series of experiments that had similar culture conditions.
as §1, §1, §1, §1
(§2) After a treatment period of approximately 16 hours, RNA was isolated from the cells and AR mRNA levels were measured by quantitative real-time PCR. Human AR primer probe set RTS3559 was used to measure mRNA levels. AR mRNA levels were adjusted according to total RNA content, as measured by RIBOGREEN®.
as §2

AR mRNA [2] = assay: Antisense inhibition of human AR in HuVEC cells, single concentration (electroporation, qRT-PCR RTS3559); assay type: cell-based
Protocol: Antisense oligonucleotides were designed targeting an AR nucleic acid and were tested for their effects on AR mRNA in vitro. The antisense oligonucleotides were tested in a series of experiments that had similar culture conditions. […] Human primer probe set RTS3559 (forward sequence [NT], designated herein as SEQ ID NO: 9; reverse sequence [NT], designated herein as SEQ ID NO: 10; probe sequence [NT], designated herein as SEQ ID NO: 11) was used to measure mRNA levels. AR mRNA levels were adjusted according to total RNA content, as measured by RIBOGREEN®. […] A total of 155 oligonucleotides were tested. Additional antisense oligonucleotides were designed targeting an AR nucleic acid and were tested for their effects on AR mRNA in vitro. […] Human primer probe set RTS3559 was used to measure mRNA levels. AR mRNA levels were adjusted according to total RNA content, as measured by RIBOGREEN®. […] A total of 82 oligonucleotides were tested. Additional antisense oligonucleotides were designed targeting an AR nucleic acid and were tested for their effects on AR mRNA in vitro. […] Human primer probe set RTS3559 was used to measure mRNA levels. AR mRNA levels were adjusted according to total RNA content, as measured by RIBOGREEN®. […] A total of 40 oligonucleotides were tested. Additional antisense oligonucleotides were designed targeting an AR nucleic acid and were tested for their effects on AR mRNA in vitro. […] Human primer probe set RTS3559 was used to measure mRNA levels. AR mRNA levels were adjusted according to total RNA content, as measured by RIBOGREEN®. […] A total of 75 oligonucleotides were tested. Additional antisense oligonucleotides were designed targeting an AR nucleic acid and were tested for their effects on AR mRNA in vitro. […] Human primer probe set RTS3559 was used to measure mRNA levels. AR mRNA levels were adjusted according to total RNA content, as measured by RIBOGREEN®. […] A total of 616 oligonucleotides were tested. Additional antisense oligonucleotides were designed targeting an AR nucleic acid and were tested for their effects on AR mRNA in vitro. […] Human primer probe set RTS3559 was used to measure mRNA levels. AR mRNA levels were adjusted according to total RNA content, as measured by RIBOGREEN®. […] A total of 385 oligonucleotides were tested.

[3] = Table 24, 1,000 nM oligonucleotide, electroporation, approximately 24 hours, relative to untreated control
[4] = Table 23, 500 nM oligonucleotide, electroporation, approximately 24 hours, relative to untreated control

584002 (k[5mC]*kT*kG*d[5mC]*dT*d[5mC]*dA*d[5mC]*d[5mC]*dA*dT*dG*d[5mC]*k[5mC]*kG*k[5mC]; antisense) [compound 584002]
percent inhibition of AR, 46.9 nM (AR mRNA [1]; Table 34): 12% | percent inhibition of AR, 187.5 nM (AR mRNA [1]; Table 34): 46% | percent inhibition of AR, 750.0 nM (AR mRNA [1]; Table 34): 70% | percent inhibition of AR, 3000.0 nM (AR mRNA [1]; Table 34): 92% | IC50 (AR mRNA [1]; Table 34): 250 nM | % inhibition (AR mRNA [2]; Table 22, 500 nM oligonucleotide, electroporation, approximately 24 hours, relative to untreated control): 30%

583789 (antisense kT*kG*k[5mC]*dA*dT*dG*dG*dT*dG*d[5mC]*dT*dG*dG*k[5mC]*k[5mC]*kT) [compound 583789]
percent inhibition of AR, 46.9 nM (AR mRNA [1]; Table 31): 30% | percent inhibition of AR, 187.5 nM (AR mRNA [1]; Table 31): 49% | percent inhibition of AR, 750.0 nM (AR mRNA [1]; Table 31): 71% | percent inhibition of AR, 3000.0 nM (AR mRNA [1]; Table 31): 85% | IC50 (AR mRNA [1]; Table 31): 190 nM | % inhibition (AR mRNA [2]; Table 19, 500 nM oligonucleotide, electroporation, approximately 24 hours, relative to untreated control): 39%

583649 (antisense kA*kG*kG*d[5mC]*dT*d[5mC]*dA*d[5mC]*dA*dG*dT*d[5mC]*dT*kG*kT*k[5mC]) [compound 583649]
percent inhibition of AR, 46.9 nM (AR mRNA [1]; Table 29): 28% | percent inhibition of AR, 187.5 nM (AR mRNA [1]; Table 29): 50% | percent inhibition of AR, 750.0 nM (AR mRNA [1]; Table 29): 68% | percent inhibition of AR, 3000.0 nM (AR mRNA [1]; Table 29): 84% | IC50 (AR mRNA [1]; Table 29): 200 nM | % inhibition (AR mRNA [2]; 500 nM ASO, ~24 h, Table 17): 46%

583613 (antisense kG*k[5mC]*kA*dA*dT*dG*dT*dG*d[5mC]*dA*dG*d[5mC]*dT*kA*kG*k[5mC]) [compound 583613]
percent inhibition of AR, 46.9 nM (AR mRNA [1]; Table 29): 24% | percent inhibition of AR, 187.5 nM (AR mRNA [1]; Table 29): 60% | percent inhibition of AR, 750.0 nM (AR mRNA [1]; Table 29): 70% | percent inhibition of AR, 3000.0 nM (AR mRNA [1]; Table 29): 75% | IC50 (AR mRNA [1]; Table 29): 190 nM | % inhibition (AR mRNA [2]; 500 nM ASO, ~24 h, Table 17): 51%

584166 (k[5mC]*kA*k[5mC]*dA*dT*d[5mC]*dA*dG*dA*dA*dG*dG*dA*kG*kT*kA; antisense) [compound 584166]
percent inhibition of AR, 46.9 nM (AR mRNA [1]; Table 35): 34% | percent inhibition of AR, 187.5 nM (AR mRNA [1]; Table 35): 52% | percent inhibition of AR, 750.0 nM (AR mRNA [1]; Table 35): 84% | percent inhibition of AR, 3000.0 nM (AR mRNA [1]; Table 35): 92% | IC50 (AR mRNA [1]; Table 35): 100 nM | % inhibition (AR mRNA [2]; [3]): 89%

584179 (kA*kT*kG*dA*dG*dT*d[5mC]*d[5mC]*dT*d[5mC]*dA*dG*dA*kA*kT*k[5mC]; antisense) [compound 584179]
percent inhibition of AR, 46.9 nM (AR mRNA [1]; Table 35): 1% | percent inhibition of AR, 187.5 nM (AR mRNA [1]; Table 35): 25% | percent inhibition of AR, 750.0 nM (AR mRNA [1]; Table 35): 62% | percent inhibition of AR, 3000.0 nM (AR mRNA [1]; Table 35): 87% | IC50 (AR mRNA [1]; Table 35): 440 nM | % inhibition (AR mRNA [2]; [3]): 74%

584069 (k[5mC]*kA*kG*dA*dG*dT*d[5mC]*dA*dT*d[5mC]*d[5mC]*d[5mC]*dT*kG*k[5mC]*kT; antisense) [compound 584069]
percent inhibition of AR, 46.9 nM (AR mRNA [1]; Table 34): 18% | percent inhibition of AR, 187.5 nM (AR mRNA [1]; Table 34): 40% | percent inhibition of AR, 750.0 nM (AR mRNA [1]; Table 34): 63% | percent inhibition of AR, 3000.0 nM (AR mRNA [1]; Table 34): 82% | IC50 (AR mRNA [1]; Table 34): 300 nM | % inhibition (AR mRNA [2]; [4]): 36%

584138 (k[5mC]*kG*k[5mC]*dG*d[5mC]*dA*dG*dG*dT*dA*dG*dG*dA*kG*k[5mC]*k[5mC]; antisense) [compound 584138]
percent inhibition of AR, 46.9 nM (AR mRNA [1]; Table 35): 2% | percent inhibition of AR, 187.5 nM (AR mRNA [1]; Table 35): 40% | percent inhibition of AR, 750.0 nM (AR mRNA [1]; Table 35): 62% | percent inhibition of AR, 3000.0 nM (AR mRNA [1]; Table 35): 89% | IC50 (AR mRNA [1]; Table 35): 370 nM | % inhibition (AR mRNA [2]; [4]): 35%
